Positions of bridges follow the written chain, without caps; N, C: chain ends. Non-standard residues stand in square brackets, D forms with d. Residues, ends and D or L forms follow the SMILES beside them. ξ: configuration not given here. *: point of attachment. Tyr(3-NO2) = N[C@@H](Cc1ccc(O)c([N+](=O)[O-])c1)C(=O)O; Phe(4-COOH) = N[C@@H](Cc1ccc(C(=O)O)cc1)C(=O)O; Bip = N[C@@H](Cc1ccc(-c2ccccc2)cc1)C(=O)O; Phe(3-CN) = N#Cc1cccc(C[C@H](N)C(=O)O)c1; Phe(3-OMe) = COc1cccc(C[C@H](N)C(=O)O)c1; Phe(3-Me) = Cc1cccc(C[C@H](N)C(=O)O)c1; NMeY = CN[C@@H](Cc1ccc(O)cc1)C(=O)O; Val(3-OH) = CC(C)(O)[C@H](N)C(=O)O; NMeF = CN[C@@H](Cc1ccccc1)C(=O)O; 4Pal = N[C@@H](Cc1ccncc1)C(=O)O; Cha = N[C@@H](CC1CCCCC1)C(=O)O; Cit = NC(=O)NCCC[C@H](N)C(=O)O; Carboxymethyl = O=C(O)C*; NMeA = CN[C@@H](C)C(=O)O; Orn = NCCC[C@H](N)C(=O)O; Dab = NCC[C@H](N)C(=O)O; Dap = NC[C@H](N)C(=O)O; Ac3c = NC1(C(=O)O)CC1; ξV = CC(C)C(N)C(=O)O; Sar = CNCC(=O)O
target: T1, human PD-1 (Jurkat-PD-1 cells) / PE-labeled human PD-L1-Ig (Homo sapiens, UniProt Q15116); test: Jurkat-PD-1 Cell Binding High-Content Screening Assay (CBA); Jurkat hPD1-PDL1 assay; conditions: Jurkat cell line over-expressing human PD-1; PE-labeled PD-L1-Ig 20 nM final; compound incubated 2 hours at 37° C.; read-out: Jurkat HPD1-PDL1 IC50
T1 construct: expressed in transfected cells; host or cells: Jurkat cell line over-expressing human PD-1
T1 sequence (Q15116 25-288): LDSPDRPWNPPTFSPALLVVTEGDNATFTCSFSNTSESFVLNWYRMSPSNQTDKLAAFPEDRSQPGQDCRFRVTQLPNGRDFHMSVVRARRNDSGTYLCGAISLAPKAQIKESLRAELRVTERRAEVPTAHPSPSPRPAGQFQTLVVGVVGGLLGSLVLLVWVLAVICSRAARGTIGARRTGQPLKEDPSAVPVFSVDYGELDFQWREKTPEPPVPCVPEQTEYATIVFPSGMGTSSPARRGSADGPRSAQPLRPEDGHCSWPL
In short: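 Jurkat cells overexpressing human PD-1 (8×10^3 per well, DMEM with 10% FCS) were preincubated with compound for 2 hours at 37° C. PE-labeled human PD-L1-Ig was then added at 20 nM final. Binding was quantified by high-content imaging.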

Which IC50 does the source give for `CC(C)C[C@@H]1NC(=O)[C@H](CC(N)=O)NC(=O)[C@H]2CCCN2C(=O)[C@H](C)N(C)C(=O)[C@H](C(C)C)NC(=O)[C@H](Cc2ccc(-c3ccccc3)cc2)NC(=O)[C@@H](CC(C)C)NC(=O)[C@H](Cc2c[nH]c3ccccc23)NC(=O)[C@H](CC(=O)O)NC(=O)[C@H](Cc2ccc(C(=O)O)cc2)NC(=O)[C@H](Cc2ccncc2)NC(=O)CSC[C@@H](C(=O)N[C@@H](C)C(N)=O)NC(=O)[C@@H](CO)NC(=O)[C@H](C(C)C)NC1=O` [Example 1389] ({CH2CO}-[4Pal][Phe(4-COOH)]DW[dL][Bip]V[NMeA][dP]NLV[dS]CA-NH2; thioether N-14) here?
The IC50 was 50 nM.

With `CC(C)C[C@@H]1NC(=O)[C@H](Cc2c[nH]c3ccccc23)NC(=O)[C@H](CC(=O)O)NC(=O)[C@H](Cc2ccc(O)cc2)NC(=O)[C@H](Cc2ccccc2)NC(=O)CSC[C@@H](C(=O)NCC(N)=O)NC(=O)[C@H]([C@@H](C)O)NC(=O)[C@H](C(C)C)NC(=O)[C@H](CC(C)C)NC(=O)[C@H](CCN)NC(=O)[C@H]2CCCN2C(=O)[C@H](C)N(C)C(=O)[C@H](C(C)C)NC(=O)[C@H](Cc2ccc(-c3ccccc3)cc2)NC1=O` [Example 1396] ({CH2CO}-FYDWL[Bip]V[NMeA][dP][Dab]LVTCG-NH2; thioether N-14) as the molecule, how does the IC50 read?
Its IC50 is 70 nM.

`CC(C)C[C@@H]1NC(=O)[C@H](Cc2c[nH]c3ccccc23)NC(=O)[C@H](CC(=O)O)NC(=O)[C@H](Cc2ccc(O)c([N+](=O)[O-])c2)NC(=O)[C@H](Cc2ccccc2)NC(=O)CSC[C@@H](C(=O)N[C@@H](C)C(N)=O)NC(=O)[C@H](CO)NC(=O)[C@H](C(C)C)NC(=O)[C@H](CC(C)C)NC(=O)[C@H](CC(N)=O)NC(=O)CN(C)C(=O)[C@H](C)N(C)C(=O)[C@H](C(C)C)NC(=O)[C@H](Cc2ccc(-c3ccccc3)cc2)NC1=O` [Example 1087] ({CH2CO}-F[Tyr(3-NO2)]DWL[Bip]V[NMeA][Sar]NLVSCA-NH2; thioether N-14) was tested. Which IC50 did it give?
The IC50 was 250 nM.

`CC(C)C1NC(=O)[C@H](Cc2c[nH]c3ccccc23)NC(=O)[C@H](CC(=O)O)NC(=O)[C@H](Cc2ccc(OCC(=O)O)cc2)NC(=O)[C@H](CN)NC(=O)CSC[C@@H](C(=O)N[C@@H](C)C(N)=O)NC(=O)[C@H]([C@@H](C)O)NC(=O)[C@H](C(C)C)NC(=O)[C@H](CC2CCCCC2)NC(=O)[C@H](CCN)NC(=O)[C@H](Cc2ccc(O)cc2)N(C)C(=O)[C@H](CCCN)NC(=O)[C@H](CCC(=O)O)NC(=O)[C@H](Cc2ccc(-c3ccccc3)cc2)NC1=O` (stereo partly drawn) [Example 1453] ({CH2CO}-[Dap]Y(Carboxymethyl)DW[ξV][Bip]E[Orn][NMeY][Dab][Cha]VTCA-NH2; thioether N-14) was tested. Which IC50 did it give?
The IC50 was 320 nM.

With `CC(C)C[C@@H]1NC(=O)[C@H](CCCNC(=N)N)NC(=O)CN(C)C(=O)[C@H](C)N(C)C(=O)[C@H](C(C)C)NC(=O)[C@H](Cc2ccc(-c3ccccc3)cc2)NC(=O)[C@H](Cc2ccc(O)cc2)NC(=O)[C@H](Cc2c[nH]c3ccccc23)NC(=O)[C@H](CC(=O)O)NC(=O)[C@H](Cc2ccc(O)cc2)NC(=O)[C@H](Cc2ccccc2)NC(=O)CSC[C@@H](C(=O)NCC(N)=O)NC(=O)[C@H](CO)NC(=O)[C@H](C(C)C)NC1=O` [Example 1236] ({CH2CO}-FYDWY[Bip]V[NMeA][Sar]RLVSCG-NH2; thioether N-14) as the molecule, how does the IC50 read?
The IC50 was 440 nM.

With `CC(C)C[C@@H]1NC(=O)[C@H](CCCNC(=N)N)NC(=O)[C@H](Cc2ccccc2)N(C)C(=O)[C@H](C)N(C)C(=O)[C@H](CCCNC(=N)N)NC(=O)[C@H](Cc2ccc(-c3ccccc3)cc2)NC(=O)[C@H](C(C)C)NC(=O)[C@H](Cc2c[nH]c3ccccc23)NC(=O)[C@H](CC(=O)O)NC(=O)[C@H](Cc2ccc(O)cc2)NC(=O)[C@H](Cc2c[nH]c3ccccc23)NC(=O)CSC[C@@H](C(=O)NCC(N)=O)NC(=O)[C@H](CO)NC(=O)[C@H](C(C)C)NC1=O` [Example 1157] ({CH2CO}-WYDWV[Bip]R[NMeA][NMeF]RLVSCG-NH2; thioether N-14) as the molecule, how does the IC50 read?
Its IC50 is 830 nM.

For `CC(C)C[C@@H]1NC(=O)[C@H](Cc2c[nH]c3ccccc23)NC(=O)[C@H](CC(=O)O)NC(=O)[C@H](Cc2ccc(O)cc2)NC(=O)[C@H](Cc2ccccc2)NC(=O)CSC[C@@H](C(=O)NC2(C(N)=O)CC2)NC(=O)[C@H](CO)NC(=O)[C@H](C(C)C)NC(=O)[C@H](CC(C)C)NC(=O)[C@H](CC(N)=O)NC(=O)CN(C)C(=O)[C@H](C)N(C)C(=O)[C@H](C(C)C)NC(=O)[C@H](Cc2ccc(-c3ccccc3)cc2)NC1=O` [Example 1056] ({CH2CO}-FYDWL[Bip]V[NMeA][Sar]NLVSC[Ac3c]-NH2; thioether N-14), which IC50 is on record?
Its IC50 is 130 nM.

With `CC(C)C[C@@H]1NC(=O)[C@H](Cc2c[nH]c3ccccc23)NC(=O)[C@H](CC(=O)O)NC(=O)[C@H](Cc2ccc(OCC(=O)O)cc2)NC(=O)[C@H](Cc2ccncc2)NC(=O)CSC[C@@H](C(=O)N[C@@H](CCN)C(N)=O)NC(=O)[C@H](CO)NC(=O)[C@H](C(C)(C)O)NC(=O)[C@H](CC2CCCCC2)NC(=O)[C@H](CCN)NC(=O)[C@H]2CCCN2C(=O)[C@H](C)N(C)C(=O)[C@H](C(C)C)NC(=O)[C@H](Cc2ccc(-c3ccccc3)cc2)NC1=O` [Example 1185] ({CH2CO}-[4Pal]Y(Carboxymethyl)DWL[Bip]V[NMeA][dP][Dab][Cha][Val(3-OH)]SC[Dab]-NH2; thioether N-14) as the molecule, how does the IC50 read?
The IC50 was 30 nM.

`COc1cccc(C[C@@H]2NC(=O)[C@H](CC(=O)O)NC(=O)[C@H](Cc3cccc(C#N)c3)NC(=O)[C@H](Cc3ccncc3)NC(=O)CSC[C@@H](C(=O)N[C@@H](C)C(N)=O)NC(=O)[C@H](CO)NC(=O)[C@H](C(C)C)NC(=O)[C@H](CC(C)C)NC(=O)[C@H](CC(N)=O)NC(=O)CN(C)C(=O)[C@H](C)N(C)C(=O)[C@H](C(C)C)NC(=O)[C@H](Cc3ccc(-c4ccccc4)cc3)NC(=O)[C@H](CC(C)C)NC2=O)c1` [Example 1392] ({CH2CO}-[4Pal][Phe(3-CN)]D[Phe(3-OMe)]L[Bip]V[NMeA][Sar]NLVSCA-NH2; thioether N-14) was tested. Which IC50 did it give?
Its IC50 is 50 nM.

Which IC50 does the source give for `CC(C)C[C@@H]1NC(=O)[C@H](CCCNC(=N)N)NC(=O)[C@H](Cc2ccccc2)N(C)C(=O)[C@H](C)N(C)C(=O)[C@H](CCCNC(=N)N)NC(=O)[C@H](Cc2ccc(-c3ccccc3)cc2)NC(=O)[C@H](C(C)C)NC(=O)[C@H](Cc2c[nH]c3ccccc23)NC(=O)[C@H](CC(=O)O)NC(=O)[C@H](Cc2ccc(O)cc2)NC(=O)[C@H](CC(N)=O)NC(=O)CSC[C@@H](C(=O)NCC(N)=O)NC(=O)[C@H](CO)NC(=O)[C@H](C(C)C)NC1=O` [Example 1032] ({CH2CO}-NYDWV[Bip]R[NMeA][NMeF]RLVSCG-NH2; thioether N-14) here?
Its IC50 is 60 nM.

With `CC(C)C[C@@H]1NC(=O)CSC[C@@H](C(=O)N[C@@H](C)C(N)=O)NC(=O)[C@H](CO)NC(=O)[C@H](C(C)C)NC(=O)[C@H](CC(C)C)NC(=O)[C@H](CCN)NC(=O)[C@H](Cc2ccccc2)N(C)C(=O)[C@H](C)N(C)C(=O)[C@H](CCCNC(=N)N)NC(=O)[C@H](Cc2ccc(-c3ccccc3)cc2)NC(=O)[C@H](C(C)C)NC(=O)[C@H](Cc2c[nH]c3ccccc23)NC(=O)[C@H](CC(=O)O)NC(=O)[C@H](Cc2ccc(O)cc2)NC1=O` [Example 1305] ({CH2CO}-LYDWV[Bip]R[NMeA][NMeF][Dab]LVSCA-NH2; thioether N-14) as the molecule, how does the IC50 read?
The IC50 was 60 nM.

How did the IC50 turn out when `CC(C)C[C@@H]1NC(=O)[C@H](CCCN)NC(=O)[C@H](Cc2ccccc2)N(C)C(=O)[C@H](C)N(C)C(=O)[C@H](CCCNC(=N)N)NC(=O)[C@H](Cc2ccc(-c3ccccc3)cc2)NC(=O)[C@H](C(C)C)NC(=O)[C@H](Cc2c[nH]c3ccccc23)NC(=O)[C@H](CC(=O)O)NC(=O)[C@H](Cc2ccc(O)cc2)NC(=O)[C@H](Cc2ccccc2)NC(=O)CSC[C@@H](C(=O)N[C@@H](C)C(N)=O)NC(=O)[C@H]([C@@H](C)O)NC(=O)[C@H](C(C)C)NC1=O` [Example 1345] ({CH2CO}-FYDWV[Bip]R[NMeA][NMeF][Orn]LVTCA-NH2; thioether N-14) was run?
Its IC50 is 120 nM.

How did the IC50 turn out when `CC(C)C[C@@H]1NC(=O)[C@H](CCCNC(=N)N)NC(=O)[C@H](Cc2ccccc2)N(C)C(=O)[C@H](C)N(C)C(=O)[C@H](CCCNC(=N)N)NC(=O)[C@H](Cc2ccc(-c3ccccc3)cc2)NC(=O)[C@H](C(C)C)NC(=O)[C@H](Cc2c[nH]c3ccccc23)NC(=O)[C@H](CC(=O)O)NC(=O)[C@H](Cc2ccc(OCC(=O)O)cc2)NC(=O)[C@H](Cc2ccc(C(=O)O)cc2)NC(=O)CSC[C@@H](C(=O)NCC(N)=O)NC(=O)[C@H](CO)NC(=O)[C@H](C(C)C)NC1=O` [Example 1300] ({CH2CO}-[Phe(4-COOH)]Y(Carboxymethyl)DWV[Bip]R[NMeA][NMeF]RLVSCG-NH2; thioether N-14) was run?
The IC50 was 120 nM.

For `Cc1cccc(C[C@@H]2NC(=O)[C@H](CC(=O)O)NC(=O)[C@H](Cc3ccc(OCC(=O)O)cc3)NC(=O)[C@H](Cc3ccncc3)NC(=O)CSC[C@@H](C(=O)N[C@@H](CCN)C(N)=O)NC(=O)[C@H](CO)NC(=O)[C@H](C(C)(C)O)NC(=O)[C@H](CC3CCCCC3)NC(=O)[C@H](CCN)NC(=O)[C@H]3CCCN3C(=O)[C@H](C)N(C)C(=O)[C@H](CCCNC(N)=O)NC(=O)[C@H](Cc3ccc(-c4ccccc4)cc3)NC(=O)[C@H](Cc3ccc(OCC(=O)O)cc3)NC2=O)c1` [Example 1180] ({CH2CO}-[4Pal]Y(Carboxymethyl)D[Phe(3-Me)]Y(Carboxymethyl)[Bip][Cit][NMeA][dP][Dab][Cha][Val(3-OH)]SC[Dab]-NH2; thioether N-14), which IC50 is on record?
The IC50 was 20 nM.

How did the IC50 turn out when `CC(C)C[C@@H]1NC(=O)[C@H](CCCCN)NC(=O)[C@H](Cc2ccccc2)N(C)C(=O)[C@H](C)N(C)C(=O)[C@H](CCCNC(=N)N)NC(=O)[C@H](Cc2ccc(-c3ccccc3)cc2)NC(=O)[C@H](C(C)C)NC(=O)[C@H](Cc2c[nH]c3ccccc23)NC(=O)[C@H](CC(=O)O)NC(=O)[C@H](Cc2ccc(O)cc2)NC(=O)[C@H](CC(N)=O)NC(=O)CSC[C@@H](C(=O)N[C@@H](C)C(N)=O)NC(=O)[C@H]([C@@H](C)O)NC(=O)[C@H](C(C)C)NC1=O` [Example 1385] ({CH2CO}-NYDWV[Bip]R[NMeA][NMeF]KLVTCA-NH2; thioether N-14) was run?
The IC50 was 280 nM.
